pIC50: −log10 of the molar value.
Experiments:
Format in all cases: biochemical
Rat FAAH = biological target: T1, Rat FAAH (Rattus norvegicus, UniProt P97612); assay: Assay Method 3: FAAH assay, homogenate of SK-N-MC cells transfected with rat FAAH; details: rat FAAH transfected SK-N-MC cell homogenate; 3H-AEA tracer 80 nM; rt 1 h
T1 construct: expressed in transfected cells; host or cells: SK-N-MC cells, electroporated, G418-selected clones
T1 sequence (P97612 1-579): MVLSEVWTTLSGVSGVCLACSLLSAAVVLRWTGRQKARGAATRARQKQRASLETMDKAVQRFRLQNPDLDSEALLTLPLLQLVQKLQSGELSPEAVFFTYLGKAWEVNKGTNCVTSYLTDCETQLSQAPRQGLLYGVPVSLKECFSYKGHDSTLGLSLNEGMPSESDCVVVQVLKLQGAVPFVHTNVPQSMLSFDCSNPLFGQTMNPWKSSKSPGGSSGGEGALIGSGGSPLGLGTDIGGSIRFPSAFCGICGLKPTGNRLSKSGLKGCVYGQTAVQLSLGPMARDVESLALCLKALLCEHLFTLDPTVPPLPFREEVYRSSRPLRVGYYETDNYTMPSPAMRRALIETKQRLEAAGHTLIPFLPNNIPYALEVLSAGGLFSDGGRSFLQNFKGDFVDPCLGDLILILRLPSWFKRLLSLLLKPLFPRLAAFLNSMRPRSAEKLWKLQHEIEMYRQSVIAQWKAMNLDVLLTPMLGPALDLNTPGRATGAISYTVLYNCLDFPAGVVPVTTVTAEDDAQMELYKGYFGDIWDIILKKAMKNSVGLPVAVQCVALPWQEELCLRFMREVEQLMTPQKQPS
Method: Assay Method 3 A. Transfection of Cells with Rat FAAH
A 10-cm tissue culture dish with a confluent monolayer of SK-N-MC cells was split 2 days (d) prior to transfection. Using sterile technique, the media was removed and the cells were detached from the dish by the addition of trypsin. One fifth of the cells were then placed onto a new 10-cm dish. Cells were grown in a 37° C. incubator with 5% CO2 in Minimal Essential Media Eagle with 10% Fetal Bovine Serum. After 2 d, cells were approximately 80% confluent. These cells were removed from the dish with trypsin and pelleted in a clinical centrifuge. The pellet was re-suspended in 400 μL complete media and transferred to an electroporation cuvette with a 0.4 cm gap between the electrodes. Supercoiled rat FMH cDNA (1 μg) was added to the cells and mixed. The voltage for the electroporation was set at 0.25 kV, and the capacitance was set at 960 μF. After electroporation, the cells were diluted into complete media (10 mL) and plated onto four 10-cm dishes. Because of the variability in the efficiency of electroporation, four different concentrations of cells were plated. […] After 10 d, dishes were analyzed for surviving colonies of cells. Dishes with well-isolated colonies were used. Cells from individual colonies were isolated and tested.
The assay mixture consisted of 50 μL of the cell homogenate, 10 μL of the test compound, and 40 μL of anandamide [1-^3H-ethanolamine] (^3H-AEA, Perkin-Elmer, 10.3 Ci/mmol), which was added last, for a final tracer concentration of 80 nM. The reaction mixture was incubated at rt for 1 h. During the incubation, 96-well Multiscreen filter plates (catalog number MAFCNOB50: Millipore, Bedford, Mass., USA) were loaded with 25 μL of activated charcoal (Multiscreen column loader, catalog number MACL09625, Millipore) and washed once with 100 μL of MeOH. […] After the 1 h incubation, 60 μL of the reaction mixture were transferred to the charcoal plates, which were then assembled on top of the DYNEX plates using Centrifuge Alignment Frames (catalog number MACF09604, Millipore). The unbound labeled ethanolamine was centrifuged through to the bottom plate (5 min at 2000 rpm), which was preloaded with the scintillant, as described above. The plates were sealed and left at rt for 1 h before counting on a Hewlett Packard TopCount.

FAAH [1] = biological target: T2, FAAH (Homo sapiens, UniProt O00519); assay: Assay Method 2: FAAH assay, homogenate of SK-N-MC cells transfected with human FAAH; parameters: expressed in transfected cells; host or cells: SK-N-MC cells, electroporated, G418-selected clones; details: human FAAH transfected SK-N-MC cell homogenate; 3H-AEA tracer 80 nM; rt 1 h
T2 sequence (O00519 1-579): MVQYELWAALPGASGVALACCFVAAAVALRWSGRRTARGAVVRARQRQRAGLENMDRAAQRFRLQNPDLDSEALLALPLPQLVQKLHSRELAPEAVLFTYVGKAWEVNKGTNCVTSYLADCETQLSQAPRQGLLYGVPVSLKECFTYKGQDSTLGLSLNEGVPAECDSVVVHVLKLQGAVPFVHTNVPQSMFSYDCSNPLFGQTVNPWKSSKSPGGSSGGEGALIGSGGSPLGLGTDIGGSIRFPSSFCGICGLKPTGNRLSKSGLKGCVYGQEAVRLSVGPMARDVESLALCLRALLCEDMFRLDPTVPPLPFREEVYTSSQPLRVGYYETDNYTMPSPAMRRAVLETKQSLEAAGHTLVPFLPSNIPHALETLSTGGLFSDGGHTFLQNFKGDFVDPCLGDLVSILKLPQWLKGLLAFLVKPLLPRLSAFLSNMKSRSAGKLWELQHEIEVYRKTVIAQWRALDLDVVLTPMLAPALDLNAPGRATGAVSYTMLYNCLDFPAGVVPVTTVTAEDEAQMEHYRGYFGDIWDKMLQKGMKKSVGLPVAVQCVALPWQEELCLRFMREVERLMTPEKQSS
Method: Assay Method 2 A. Transfection of Cells with Human FAAH
A 10-cm tissue culture dish with a confluent monolayer of SK-N-MC cells was split 2 days (d) prior to transfection. Using sterile technique, the media was removed and the cells were detached from the dish by the addition of trypsin. One fifth of the cells were then placed onto a new 10-cm dish. Cells were grown in a 37° C. incubator with 5% CO2 in Minimal Essential Media Eagle with 10% Fetal Bovine Serum. After 2 d, cells were approximately 80% confluent. These cells were removed from the dish with trypsin and pelleted in a clinical centrifuge. The pellet was re-suspended in 400 μL complete media and transferred to an electroporation cuvette with a 0.4 cm gap between the electrodes. Supercoiled human FMH cDNA (1 μg) was added to the cells and mixed. The voltage for the electroporation was set at 0.25 kV, and the capacitance was set at 960 μF. After electroporation, the cells were diluted into complete media (10 mL) and plated onto four 10-cm dishes. Because of the variability in the efficiency of electroporation, four different concentrations of cells were plated. The ratios used were 1:20, 1:10, and 1:5, with the remainder of the cells being added to the fourth dish. The cells were allowed to recover for 24 h before adding the selection media (complete media with 600 μg/mL G418). After 10 d, dishes were analyzed for surviving colonies of cells. Dishes with well-isolated colonies were used. Cells from individual colonies were isolated and tested.
The assay mixture consisted of 50 μL of the cell homogenate, 10 μL of the test compound, and 40 μL of anandamide [1-^3H-ethanolamine] (^3H-AEA, Perkin-Elmer, 10.3 Ci/mmol), which was added last, for a final tracer concentration of 80 nM. The reaction mixture was incubated at rt for 1 h. During the incubation, 96-well Multiscreen filter plates (catalog number MAFCNOB50; Millipore, Bedford, […]., USA) were loaded with 25 μL of activated charcoal (Multiscreen column loader, catalog number MACL09625, Millipore) and washed once with 100 μL of MeOH. Also during the incubation, 96-well DYNEX MicroLite plates (catalog number NL510410) were loaded with 100 μL of MicroScint40 (catalog number 6013641, Packard Bioscience, Meriden, Conn., USA). After the 1 h incubation, 60 μL of the reaction mixture were transferred to the charcoal plates, which were then assembled on top of the DYNEX plates using Centrifuge Alignment Frames (catalog number MACF09604, Millipore). The unbound labeled ethanolamine was centrifuged through to the bottom plate (5 min at 2000 rpm), which was preloaded with the scintillant, as described above. The plates were sealed and left at rt for 1 h before counting on a Hewlett Packard TopCount.

FAAH [2] = biological target: T2, FAAH; assay: Assay Method 1: FAAH assay, T84 cell homogenate, 3H-anandamide hydrolysis; parameters: T84 frozen pellets (contents of 1-4×15 cm culture dishes) were homogenized in 300 mL of FAAH assay buffer; endogenous in cells; host or cells: T84 cells (homogenate); details: 3H-AEA tracer 200 nM, rt 1 h
Method: The assay mixture was prepared from 50 μL of the cell homogenate, 10 μL of the test compound, and 40 μL of anandamide [1-^3H-ethanolamine] (^3H-AEA; Perkin-Elmer, 10.3 Ci/mmol), which was added last, for a final tracer concentration of 200 nM. The reaction mixture was incubated at rt for 1 hour (h). During the incubation, 96-well Multiscreen filter plates (catalog number MAFCNOB50; Millipore, Bedford, Mass. USA) were loaded with 25 μL of activated charcoal (Multiscreen column loader, catalog number MACL09625, Millipore) and washed once with 100 μL of MeOH. […] After the 1 h incubation, 60 μL of the reaction mixture were transferred to the charcoal plates, which were then assembled on top of the DYNEX plates using Centrifuge Alignment Frames (catalog number MACF09604, Millipore). The unbound, labeled ethanolamine was centrifuged through to the bottom plate (5 min at 2000 rpm), which was preloaded with the scintillant, as described above. The plates were sealed and left at rt for 1 h before counting on a Hewlett Packard TopCount.

Row | SMILES | pIC50 (Rat FAAH) | pIC50 (FAAH [1]) | pIC50 (FAAH [2])
1 | O=C(Nc1ccccc1)N1CCN(c2nc(N3CCCCC3)ns2)CC1 [Example 27, 4-(3-Piperidin-1-yl-[1,2,4]thiadiazol-5-yl)-piperazine-1-carboxylic acid phenylamide] | 5.96 | 6.59 | 
2 | O=C(Nc1ccccc1)N1CCN(c2nc(N3CCCC3)ns2)CC1 [Example 28, 4-(3-Pyrrolidin-1-yl-[1,2,4]thiadiazol-5-yl)-piperazine-1-carboxylic acid phenylamide] | 5.30 | 5.52 | 
3 | CC1CCN(c2nsc(N3CCN(C(=O)Nc4ccccc4)CC3)n2)CC1 [Example 29, 4-[3-(4-Methyl-piperidin-1-yl)-[1,2,4]thiadiazol-5-yl]-piperazine-1-carboxylic acid phenylamide] | 5.30 | < 5.00 | 
4 | O=C(Nc1ncccn1)N1CCN(c2nc(-c3ccccc3)ns2)CC1 [Example 31, 4-(3-Phenyl-[1,2,4]thiadiazol-5-yl)-piperazine-1-carboxylic acid pyrimidin-2-ylamide] | 7.52 | 6.80 | 
5 | O=C(Nc1ccccc1)N1CCN(c2nc(-c3cc(Cl)cc(Cl)c3)ns2)CC1 [Example 39, 4-[3-(3,5-Dichloro-phenyl)-[1,2,4]thiadiazol-5-yl]-piperazine-1-carboxylic acid phenylamide] | 7.24 | 7.22 | 
6 | O=C(Nc1ccccc1)N1CCN(c2nc(N3CCOCC3)ns2)CC1 [Example 44, 4-(3-Morpholin-4-yl-[1,2,4]thiadiazol-5-yl)-piperazine-1-carboxylic acid phenylamide] | < 5.00 | < 5.00 | 

Now from value to compound:

Row | pIC50 (Rat FAAH) | pIC50 (FAAH [1]) | pIC50 (FAAH [2]) | SMILES
7 | 7.34 |  |  | O=C(Nc1ccccc1)N1CCN(c2nc(-c3ccccc3)ns2)CC1 [Example 1, 4-(3-Phenyl-[1,2,4]thiadiazol-5-yl)-piperazine-1-carboxylic acid phenylamide]
8 | 7.11 | 6.35 |  | O=C(Nc1nccs1)N1CCN(c2nc(-c3ccccc3)ns2)CC1 [Example 32, 4-(3-Phenyl-[1,2,4]thiadiazol-5-yl)-piperazine-1-carboxylic acid thiazol-2-ylamide]
9 | 7.74 |  | 7.55 | O=C(Nc1ccncc1)N1CCN(c2nc(-c3ccccc3)ns2)CC1 [Example 33, 4-(3-Phenyl-[1,2,4]thiadiazol-5-yl)-piperazine-1-carboxylic acid pyridin-4-ylamide]
10 | 7.08 | 7.37 |  | Cc1cccc(-c2nsc(N3CCN(C(=O)Nc4ccccc4)CC3)n2)c1 [Example 38, 4-(3-m-Tolyl-[1,2,4]thiadiazol-5-yl)-piperazine-1-carboxylic acid phenylamide]
11 | 5.70 | 6.27 |  | O=C(Nc1ccccc1)N1CCN(c2nc(-c3ccco3)ns2)CC1 [Example 40, 4-(3-Furan-2-yl-[1,2,4]thiadiazol-5-yl)-piperazine-1-carboxylic acid phenylamide]
12 | 6.23 | 6.46 |  | O=C(Nc1ccccc1)N1CCN(c2nc(-c3ccoc3)ns2)CC1 [Example 41, 4-(3-Furan-3-yl-[1,2,4]thiadiazol-5-yl)-piperazine-1-carboxylic acid phenylamide]
13 | 6.52 | 7.22 |  | O=C(Nc1ccccc1)N1CCN(c2nc(-c3cccs3)ns2)CC1 [Example 42, 4-(3-Thiophen-2-yl-[1,2,4]thiadiazol-5-yl)-piperazine-1-carboxylic acid phenylamide]
14 | 6.92 | 6.89 |  | O=C(Nc1ccccc1)N1CCN(c2nc(-c3ccsc3)ns2)CC1 [Example 43, 4-(3-Thiophen-3-yl-[1,2,4]thiadiazol-5-yl)-piperazine-1-carboxylic acid phenylamide]
